Test results from the supplement of paper PMC9663587.

Legend:
[1] = compound: CC(=O)c1c(C)c2cnc(Nc3ccc(N4CCNCC4)cn3)nc2n(C2CCCC2)c1=O
[2] = compound: CNc1nc(-c2ccc3c(N)n[nH]c3c2)cc(N2C[C@@H](C(=O)NC3CCCCC3)CC[C@H]2C)n1
Flavopiridol = compound: CN1CC[C@H](c2c(O)cc(O)c3c(=O)cc(-c4ccccc4Cl)oc23)[C@H](O)C1 [Flavopiridol]
Volasertib/BI6727 = compound: CC[C@@H]1C(=O)N(C)c2cnc(Nc3ccc(C(=O)N[C@H]4CC[C@H](N5CCN(CC6CC6)CC5)CC4)cc3OC)nc2N1C(C)C [Volasertib/BI6727]
[3] = compound: CO[C@@H](C)Cn1c(=O)n(C)c2cnc3ccc(-c4cncc(C(C)(C)O)c4)cc3c21
Torin2 = compound: C1=CC(=CC(=C1)N2C(=O)C=CC3=CN=C4C=CC(=CC4=C32)C5=CN=C(C=C5)N)C(F)(F)F [Torin2]
Taselisib/GDC0032 = compound: Cc1nc(-c2cn3c(n2)-c2ccc(-c4cnn(C(C)(C)C(N)=O)c4)cc2OCC3)n(C(C)C)n1 [Taselisib/GDC0032]
Pictilisib/GDC0941 = compound: CS(=O)(=O)N1CCN(Cc2cc3nc(-c4cccc5[nH]ncc45)nc(N4CCOCC4)c3s2)CC1 [Pictilisib/GDC0941]
INK128/MLN0128 = compound: CC(C)n1nc(-c2ccc3oc(N)nc3c2)c2c(N)ncnc21 [INK128/MLN0128]
Ipatasertib/GDC0068 = compound: CC(C)NC[C@@H](C(=O)N1CCN(c2ncnc3c2[C@H](C)C[C@H]3O)CC1)c1ccc(Cl)cc1 [Ipatasertib/GDC0068]
Dasatinib = compound: Cc1nc(Nc2ncc(C(=O)Nc3c(C)cccc3Cl)s2)cc(N2CCN(CCO)CC2)n1 [Dasatinib]
AZD7762 = compound: NC(=O)Nc1cc(-c2cccc(F)c2)sc1C(=O)N[C@H]1CCCNC1 [AZD7762]
senexin b = compound: CN1CCN(C(=O)c2ccc3cc(CCNc4ncnc5ccc(C#N)cc45)ccc3c2)CC1 [senexin b]
Tivantinib/ARQ197 = compound: O=C1NC(=O)[C@@H](c2cn3c4c(cccc24)CCC3)[C@@H]1c1c[nH]c2ccccc12 [Tivantinib/ARQ197]
AZD6738 = compound: C[C@@H]1COCCN1c1cc(C2([S@](C)(=N)=O)CC2)nc(-c2cc[nH]c3nccc2-3)n1 [AZD6738]
TGX221 = compound: CC1=CN2C(=O)C=C(N=C2C(=C1)C(C)NC3=CC=CC=C3)N4CCOCC4 [TGX221]
Alpelisib/BYL719 = compound: Cc1nc(NC(=O)N2CCC[C@H]2C(N)=O)sc1-c1ccnc(C(C)(C)C(F)(F)F)c1 [Alpelisib/BYL719]
AZD1775 = compound: C=CCn1c(=O)c2cnc(Nc3ccc(N4CCN(C)CC4)cc3)nc2n1-c1cccc(C(C)(C)O)n1 [AZD1775]
Olaparib/AZD2281 = compound: O=C(c1cc(Cc2n[nH]c(=O)c3ccccc23)ccc1F)N1CCN(C(=O)C2CC2)CC1 [Olaparib/AZD2281]
[4] = compound: CC(=O)Nc1cccc(-n2c(=O)n(C3CC3)c(=O)c3c(Nc4ccc(I)cc4F)n(C)c(=O)c(C)c32)c1
[5] = compound: COc1ccc2c(c1)[C@]1(C[C@H]1c1ccc3c(/C=C/c4ccc(CN5C[C@@H](C)O[C@@H](C)C5)cc4)n[nH]c3c1)C(=O)N2
Doxorubicin = compound: COc1cccc2c1C(=O)c1c(O)c3c(c(O)c1C2=O)C[C@@](O)(C(=O)CO)C[C@@H]3O[C@H]1C[C@H](N)[C@H](O)[C@H](C)O1 [Doxorubicin]
THZ1 = compound: CN(C)C/C=C/C(=O)Nc1ccc(C(=O)Nc2cccc(Nc3ncc(Cl)c(-c4c[nH]c5ccccc45)n3)c2)cc1 [THZ1]
THZ531 = compound: CN(C)C/C=C/C(=O)Nc1ccc(C(=O)N2CCC[C@@H](Nc3ncc(Cl)c(-c4c[nH]c5ccccc45)n3)C2)cc1 [THZ531]
R0-3306 = compound: C1=CC2=C(C=CC(=C2)C=C3C(=O)NC(=NCC4=CC=CS4)S3)N=C1 [R0-3306]
Cediranib/AZD2171 = compound: COc1cc2c(Oc3ccc4[nH]c(C)cc4c3F)ncnc2cc1OCCCN1CCCC1 [Cediranib/AZD2171]
Rucaparib = compound: CNCc1ccc(-c2[nH]c3cc(F)cc4c3c2CCNC4=O)cc1 [Rucaparib]
LEE011/Ribociclib = compound: CN(C)C(=O)c1cc2cnc(Nc3ccc(N4CCNCC4)cn3)nc2n1C1CCCC1 [LEE011/Ribociclib]
[6] = compound: CCC1=CN=CN=C1N2CCN(CC2)CC3=NC4=C(N3)C=C(C=C4)C(F)(F)F
BVD523 = compound: CC(C)Nc1cc(-c2c[nH]c(C(=O)N[C@H](CO)c3cccc(Cl)c3)c2)c(Cl)cn1 [BVD523]
AZD2014 = compound: CNC(=O)c1cccc(-c2ccc3c(N4CCOC[C@@H]4C)nc(N4CCOC[C@@H]4C)nc3n2)c1 [AZD2014]
[7] = compound: Cc1nn(C)c(COc2ccc(N3CCN(S(=O)(=O)N(C)C)CC3)cc2)c1-c1cccc2c(CCCOc3cccc4ccccc34)c(C(=O)O)n(CCN3CCOCC3)c12
Neratinib/HKI272 = compound: CCOc1cc2ncc(C#N)c(Nc3ccc(OCc4ccccn4)c(Cl)c3)c2cc1NC(=O)/C=C/CN(C)C [Neratinib/HKI272]
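Further: breast cancer and non-malignant breast epithelial cell lines, Deep Dye Drop or Dye Drop imaging, nine half-log doses, GR normalized to time-zero plates and DMSO-only controls.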

HTERT_HME1
GR50, 72 h [1]: 0.222 µM
GR50, 72 h [2]: > 10 µM
GR50, 72 h (Flavopiridol): 0.112 µM
GR50, 72 h (Volasertib/BI6727): 0.0172 µM
GR50, 72 h [3]: 0.00274 µM
GR50, 72 h (Torin2): 0.0253 µM
GR50, 72 h (Taselisib/GDC0032): 0.148 µM
GR50, 72 h (Pictilisib/GDC0941): 2.8 µM
GR50, 72 h (INK128/MLN0128): 0.0335 µM
GR50, 72 h (Ipatasertib/GDC0068): > 10 µM
GR50, 72 h (Dasatinib): 0.183 µM
GR50, 72 h (AZD7762): 0.259 µM
GR50, 72 h (senexin b): > 10 µM
GR50, 72 h (Tivantinib/ARQ197): 0.0344 µM
GR50, 72 h (AZD6738): 5.78 µM
GR50, 72 h (TGX221): > 10 µM
GR50, 72 h (Alpelisib/BYL719): 6.04 µM
GR50, 72 h (AZD1775): 0.302 µM
GR50, 72 h (Olaparib/AZD2281): > 10 µM
GR50, 72 h [4]: 0.00573 µM
GR50, 72 h [5]: 0.0011 µM
GR50, 72 h (Doxorubicin): 0.00471 µM
GR50, 72 h (THZ1): 0.00442 µM
GR50, 72 h (THZ531): 0.22 µM
GR50, 72 h (R0-3306): 4.01 µM
GR50, 72 h (Cediranib/AZD2171): 7.57 µM
GR50, 72 h (Rucaparib): > 10 µM
GR50, 72 h (LEE011/Ribociclib): 1.2 µM
GR50, 72 h [6]: 5.4 µM
GR50, 72 h (BVD523): 0.213 µM
GR50, 72 h (AZD2014): 0.0169 µM
GR50, 72 h [7]: 0.899 µM
GR50, 72 h (Neratinib/HKI272): 0.151 µM

MCF10A (GM)
GR50, 72 h [2]: > 10 µM
GR50, 72 h (Flavopiridol): 0.101 µM
GR50, 72 h [3]: 0.00578 µM
GR50, 72 h (senexin b): > 10 µM
GR50, 72 h (AZD6738): 6.85 µM
GR50, 72 h (AZD1775): 5.15 µM
GR50, 72 h [5]: 0.00625 µM
GR50, 72 h (THZ1): 0.0449 µM
GR50, 72 h (THZ531): 0.428 µM
GR50, 72 h (R0-3306): 6.32 µM
GR50, 72 h (Rucaparib): > 10 µM
GR50, 72 h (LEE011/Ribociclib): > 10 µM
GR50, 72 h (BVD523): 1.51 µM
GR50, 72 h (AZD2014): 0.034 µM
